# Patent publication US12570673B2, “c-Myc protein inhibitor, and preparation method therefor and use thereof” (SUZHOU KINTOR PHARMACEUTICALS, INC., priority 2019, dated 2026)
# Test system: HL60 cells
# Experiment: Anti-cancer activity test, MTT, HL60 cells
# Format: cell-based
# Details: Homo sapiens, HL-60, culturing for 72 hours
# Experimental: Cell culture medium: Roswell medium RPMI-1640 (+L-glutamine) was added with 10% fetal bovine serum, with 100 units penicillin and 100 μg streptomycin per ml.
# Cell culture conditions: 5% CO2, 95% humidity, cultured at 37° C. constant temperature.
# 2. Cell Inoculation, Drugs Dosing and Culture.
# Logarithmic growth phase HL-60, human chronic myeloid leukemia cells (K562), human esophageal squamous cell carcinoma cells (KYSE510), human large cell lung cancer cells (H460) were inoculated into 96-well cell culture plates, 2×10^4 cells per well. Different concentrations of active compounds (dissolved in dimethyl sulfoxide (DMSO) stock solution) were added, so that the final concentration of DMSO was 0.2%, and the control group was DMSO. Each group was repeated three times.
# After culturing for 72 hours, 20 µL of thiazolyl blue (MTT) (5 mg/ml, ready for use, dissolved in 1×PBS for cell culture) was added to each well, and incubated at 37° C. for 3 hours.
# The 96-well cell culture plates were centrifuged at 1000 rpm for 10 minutes. The supernatant was discarded; 200 μL of DMSO was added to each well and the plate was shaken for 5 minutes.
# The absorbance of each well was detected at 570 nm wavelength with a microplate reader, and the IC50 of the compounds was calculated.
row,IC50,Compound
1,500 to 2000 nM,CC(C)C[C@H](NC(=O)[C@H](CC(C)C)NC(=O)Cn1c2ncccc2c2cccnc21)B(O)O [Compound A107]
2,< 100 nM,CC(C)C[C@H](NC(=O)[C@H](Cc1c[nH]c2ccccc12)NC(=O)c1ccc2ccccc2c1)B1O[C@@H]2C[C@@H]3C[C@@H](C3(C)C)[C@]2(C)O1 [Compound A37]
3,< 100 nM,CC(C)C[C@H](NC(=O)[C@H](Cc1c[nH]c2ccccc12)NC(=O)OCc1ccccc1)B(O)O [Compound A66]
4,< 100 nM,COC(=O)C[C@H](NC(=O)OCC1c2ccccc2-c2ccccc21)C(=O)N[C@@H](CC(C)C)B1O[C@@H]2C[C@@H]3C[C@@H](C3(C)C)[C@]2(C)O1 [Compound A16]
5,< 100 nM,CC(C)C[C@H](NC(=O)[C@H](Cc1c[nH]c2ccccc12)NC(=O)CC1CC1)B1O[C@@H]2C[C@@H]3C[C@@H](C3(C)C)[C@]2(C)O1 [Compound A31]
6,100 to 500 nM,CC(C)C[C@H](NC(=O)[C@H](CC(C)C)NC(=O)Cn1c2ccccc2c2cnccc21)B1O[C@@H]2C[C@@H]3C[C@@H](C3(C)C)[C@]2(C)O1 [Compound A58]
7,100 to 500 nM,CC(C)C[C@H](NC(=O)[C@H](Cc1c[nH]c2ccccc12)NCc1ccccc1)B(O)O [Compound A79]
8,< 100 nM,CC(C)C[C@H](NC(=O)[C@H](Cc1c[nH]c2ccccc12)NC(=O)OCc1ccccc1)B1O[C@@H]2C[C@@H]3C[C@@H](C3(C)C)[C@]2(C)O1 [Compound A21]
9,< 100 nM,COC(=O)C[C@H](NC(=O)CC1c2ccccc2-c2ccccc21)C(=O)N[C@@H](CC(C)C)B(O)O [Compound A80]
10,< 100 nM,CC(C)C[C@H](NC(=O)[C@H](Cc1c[nH]c2ccccc12)NC(=O)NC1CCCC1)B(O)O [Compound A77]
11,< 100 nM,CC(C)C[C@H](NC(=O)[C@H](Cc1c[nH]c2ccccc12)NC(=O)NC1CCCC1)B1O[C@@H]2C[C@@H]3C[C@@H](C3(C)C)[C@]2(C)O1 [Compound A44]
12,< 100 nM,CC(C)C[C@H](NC(=O)[C@H](Cc1ccccc1)NC(=O)OCC1c2ccccc2-c2ccccc21)B1O[C@@H]2C[C@@H]3C[C@@H](C3(C)C)[C@]2(C)O1 [Compound A15]
13,500 to 2000 nM,CC(C)C[C@H](NC(=O)[C@H](CC(C)C)NC(=O)Cn1c2ccc(Cl)cc2c2cc(Cl)ccc21)B1O[C@@H]2C[C@@H]3C[C@@H](C3(C)C)[C@]2(C)O1 [Compound A59]
14,500 to 2000 nM,CC(C)C[C@H](NC(=O)[C@H](CC(C)C)NC(=O)Cn1c2ccc(Cl)cc2c2cc(Cl)ccc21)B(O)O [Compound A97]
15,< 100 nM,CC(C)C[C@H](NC(=O)[C@H](CC(C)C)NC(=O)NC1c2ccccc2-c2ccccc21)B1O[C@@H]2C[C@@H]3C[C@@H](C3(C)C)[C@]2(C)O1 [Compound A42]
16,< 100 nM,CC(C)C[C@H](NC(=O)[C@H](C)NC(=O)OCC1c2ccccc2-c2ccccc21)B(O)O [Compound A86]
17,500 to 2000 nM,CC(C)C[C@H](NC(=O)[C@H](CC(C)C)NC(=O)CN(c1ccccc1)c1ccccc1)B1O[C@@H]2C[C@@H]3C[C@@H](C3(C)C)[C@]2(C)O1 [Compound A55]
18,< 100 nM,CC(C)C[C@H](NC(=O)[C@H](CC(C)C)NC(=O)CC1c2ccccc2-c2ccccc21)B1O[C@@H]2C[C@@H]3C[C@@H](C3(C)C)[C@]2(C)O1 [Compound A24]
19,< 100 nM,CC(C)C[C@H](NC(=O)[C@H](Cc1c[nH]c2ccccc12)NC(=O)c1cnc2ccccc2c1)B(O)O [Compound A75]
20,< 100 nM,CC(C)C[C@H](NC(=O)[C@H](Cc1c[nH]c2ccccc12)NC(=O)OC1CCCC1)B(O)O [Compound A78]

row,IC50,Compound
1,100 to 500 nM,CC(C)C[C@H](NC(=O)[C@H](CC(C)C)NC(=O)Cn1c2ccccc2c2ccc(C#N)cc21)B1O[C@@H]2C[C@@H]3C[C@@H](C3(C)C)[C@]2(C)O1 [Compound A61]
2,100 to 500 nM,CC(C)C[C@H](NC(=O)[C@H](CC(C)C)NC(=O)Cn1c2ccccc2c2ccncc21)B(O)O [Compound A92]
3,< 100 nM,CC(C)C[C@H](NC(=O)[C@H](CCc1ccccc1)NC(=O)OCC1c2ccccc2-c2ccccc21)B1O[C@@H]2C[C@@H]3C[C@@H](C3(C)C)[C@]2(C)O1 [Compound A17]
4,2000 to 10000 nM,CC(C)C[C@H](NC(=O)[C@H](C)NC(=O)c1ccc2c(c1)C(=O)N(C1CCC(=O)NC1=O)C2=O)B1O[C@@H]2C[C@@H]3C[C@@H](C3(C)C)[C@]2(C)O1 (stereo partly shown) [Compound A53]
5,500 to 2000 nM,CC(C)C[C@H](NC(=O)[C@H](CC(C)C)NC(=O)Cn1c2ccccc2c(=O)c2ccccc21)B1O[C@@H]2C[C@@H]3C[C@@H](C3(C)C)[C@]2(C)O1 [Compound A41]
6,< 100 nM,CC(C)C[C@H](NC(=O)[C@H](CC(=O)NC(c1ccccc1)(c1ccccc1)c1ccccc1)NC(=O)OCC1c2ccccc2-c2ccccc21)B1O[C@@H]2C[C@@H]3C[C@@H](C3(C)C)[C@]2(C)O1 [Compound A1]
7,< 100 nM,CC(C)C[C@H](NC(=O)[C@H](Cc1c[nH]c2ccccc12)NC(=O)OCC1c2ccccc2-c2ccccc21)B1O[C@@H]2C[C@@H]3C[C@@H](C3(C)C)[C@]2(C)O1 [Compound A18]
8,< 100 nM,CC(C)C[C@H](NC(=O)[C@H](Cc1c[nH]c2ccccc12)NC(=O)CC1CCCC1)B1O[C@@H]2C[C@@H]3C[C@@H](C3(C)C)[C@]2(C)O1 [Compound A30]
9,< 100 nM,CC(C)C[C@H](NC(=O)[C@H](Cc1c[nH]c2ccccc12)NC(=O)CC1CCCCC1)B1O[C@@H]2C[C@@H]3C[C@@H](C3(C)C)[C@]2(C)O1 [Compound A29]
10,500 to 2000 nM,CC(C)C[C@H](NC(=O)[C@H](CC(C)C)NC(=O)Cn1c2ccccc2c2ccncc21)B1O[C@@H]2C[C@@H]3C[C@@H](C3(C)C)[C@]2(C)O1 [Compound A39]
11,100 to 500 nM,CC(C)C[C@H](NC(=O)[C@H](CC(C)C)NC(=O)Cn1c2ccccc2c2cnccc21)B(O)O [Compound A96]
12,< 100 nM,CC(C)C[C@H](NC(=O)[C@H](CC(C)C)NC(=O)OCC1c2ccccc2-c2ccccc21)B(O)O [Compound A65]
13,100 to 500 nM,CC(C)C[C@H](NC(=O)[C@H](CC(C)C)NC(=O)Cn1c2ccccc2c2ccc(O)cc21)B(O)O [Compound A106]
14,< 100 nM,CC(C)C[C@H](NC(=O)[C@H](CC(=O)NC(c1ccccc1)(c1ccccc1)c1ccccc1)NC(=O)OCc1ccccc1)B1O[C@@H]2C[C@@H]3C[C@@H](C3(C)C)[C@]2(C)O1 [Compound A20]
15,< 100 nM,COC(=O)CC[C@H](NC(=O)OCC1c2ccccc2-c2ccccc21)C(=O)N[C@@H](CC(C)C)B1O[C@@H]2C[C@@H]3C[C@@H](C3(C)C)[C@]2(C)O1 [Compound A14]
16,< 100 nM,CC(C)C[C@H](NC(=O)[C@H](Cc1c[nH]c2ccccc12)NC(=O)CC1CC1)B(O)O [Compound A70]
17,2000 to 10000 nM,CC(C)C[C@H](NC(=O)[C@H](C)NC(=O)c1ccc2c(c1)C(=O)N(C1CCC(=O)NC1=O)C2=O)B(O)O (stereo partly shown) [Compound A90]
18,100 to 500 nM,C[C@H](NC(=O)[C@H](CCCCNC(=O)OC(C)(C)C)NC(=O)OCC1c2ccccc2-c2ccccc21)B1O[C@@H]2C[C@@H]3C[C@@H](C3(C)C)[C@]2(C)O1 [Compound A23]
19,< 100 nM,CC(C)C[C@H](NC(=O)[C@H](Cc1c[nH]c2ccccc12)NC(=O)c1cnc2ccccc2c1)B1O[C@@H]2C[C@@H]3C[C@@H](C3(C)C)[C@]2(C)O1 [Compound A36]
20,100 to 500 nM,CC(C)C[C@H](NC(=O)[C@H](CC(C)C)NC(=O)Cn1c2ccccc2c2ccc(Br)cc21)B(O)O [Compound A102]
